{"source": "patent US11484564B2", "about": "“Adhesion prevention material” (priority 2017, dated 2022)", "test_system": "flexor digitorum profundus tendon", "assay": "Evaluation of antiadhesive effect in cut and sutured flexor digitorum profundus tendon (adhesion score, 3 portions)", "type": "in vivo, rabbit", "details": "0.15 mL, 2 weeks", "protocol": "As supplied animals, 13-week old rabbits (Kbl: JW, male) were used. By the same procedure as in the above-described Test Example 1, anesthesia, hair removal, holding, and sterilization were performed. Next, the skin covering a metatarsus of the left hind limb was incised longitudinally under anesthesia to expose flexor tendons. Among the exposed flexor tendons, a flexor digitorum profundus tendon was cut by sharp dissection using a scalpel. Then, the dissected region of the flexor digitorum profundus tendon was sutured with a suture (trade name: “6-0 Prolene”, Ethicon, Inc.) by a modified Kessler technique, hemostasis and washing with physiological saline were performed. Then, test samples were administered to the exposed flexor digitorum profundus tendon and its surroundings. The test samples were administered as follows. […] Then, the incised portion was sutured with a suture (trade name: “5-0 suture with needle for clinical use”, Matsuda Ika Kogyo CO., LTD.). The rabbit was fed with an e-collar around the neck to prevent self-injurious behavior. At 2 weeks after administration of the test sample, the rabbit was painlessly sacrificed by an overdose of Somnopentil (a trade name “pentobarbital sodium”, Kyoritsu Seiyaku Corporation) by auricular vein administration. The operated site was incised again, and degrees of adhesion were evaluated according to the criteria with respect to the following three portions: between flexor digitorum profundus tendon and gliding floor, between flexor digitorum profundus tendon and flexor digitorum superficialis tendon, and between flexor digitorum profundus tendon and other surrounding tissues. The total of the scores of the three portions was designated as a score for the individual. <Evaluation Criteria> 0: No adhesion 1: Easily dissectable from surrounding tissues by blunt dissection 2: Dissectable from surrounding tissues by blunt dissection 3: Dissection from surrounding tissues requires slightly sharp dissection 4: Dissection from surrounding tissues requires completely sharp dissection", "key": {"[1]": {"details": "Test Example 9, tripeptide 30% by weight with gel powder (B) 20% by weight"}, "[2]": {"details": "Test Example 5, peptide 30% by weight with crosslinked-gelatin sponge gel powder (B) 20% by weight"}, "[3]": {"details": "Test Example 6, peptide 30% by weight with gel powder (B) 20% by weight"}, "[4]": {"details": "Test Example 7, peptide 30% by weight with gel powder (B) 20% by weight"}}, "note": "Entries after “also recorded” stand apart in the source; their conditions may differ. Non-standard residues stand in square brackets, D forms with d. No end group written: not given here. Hyp = O=C(O)[C@@H]1C[C@@H](O)CN1"}
{"substance": "Ile-Pro-[Hyp] [tripeptide 5]", "values": [{"measurement": "antiadhesive effect", "setting": "[1]", "value": "antiadhesive effects were observed"}]}
{"substance": "Gly-Pro-[Hyp] [tripeptide 4]", "values": [{"measurement": "antiadhesive effect", "setting": "[2]", "value": "the same antiadhesive effect as in the case in which both peptide mixture 1 and the crosslinked-gelatin sponge gel were administered was observed"}, {"measurement": "antiadhesive effect", "setting": "[3]", "value": "contribute to the antiadhesive effect"}, {"measurement": "antiadhesive effect", "setting": "[4]", "value": "antiadhesive effects were observed"}, {"measurement": "antiadhesive effect", "setting": "[1]", "value": "antiadhesive effects were observed"}]}
{"substance": "(Gly-Pro-Hyp)10 [polypeptide 1]", "values": [{"measurement": "antiadhesive effect", "setting": "[4]", "value": "antiadhesive effects were observed; also recorded: lower than those in tripeptide 4 and oligopeptide 1"}]}
{"substance": "Pro-Hyp [dipeptide 1]", "values": [{"measurement": "antiadhesive effect", "setting": "[3]", "value": "contribute to the antiadhesive effect"}]}
{"substance": "Gly-Pro-Ala [tripeptide 3, reference compound]", "values": [{"measurement": "antiadhesive effect", "setting": "[2]", "value": "the antiadhesive effect was inferior to the case in which peptide mixture 1 was used"}]}
{"substance": "Tyr-Pro-[Hyp] [tripeptide 8]", "values": [{"measurement": "antiadhesive effect", "setting": "[1]", "value": "antiadhesive effects were observed"}]}
{"substance": "Gly-Ala-[Hyp] [tripeptide 2, reference compound]", "values": [{"measurement": "antiadhesive effect", "setting": "[2]", "value": "the antiadhesive effect was inferior to the case in which peptide mixture 1 was used"}]}
{"substance": "Arg-Pro-[Hyp] [tripeptide 7]", "values": [{"measurement": "antiadhesive effect", "setting": "[1]", "value": "antiadhesive effects were observed"}]}
{"substance": "(Gly-Pro-Hyp)5 [oligopeptide 1]", "values": [{"measurement": "antiadhesive effect", "setting": "[4]", "value": "antiadhesive effects were observed"}]}
{"substance": "Asn-Pro-[Hyp] [tripeptide 6]", "values": [{"measurement": "antiadhesive effect", "setting": "[1]", "value": "antiadhesive effects were observed"}]}
{"substance": "Gly-Pro [dipeptide 2, reference compound]", "values": [{"measurement": "antiadhesive effect", "setting": "[3]", "value": "the antiadhesive effect was decreased"}]}
